Measured values as given in US20260109721A1, “IONIZABLE CATIONIC LIPIDS INCORPORATING SILICON: SYNTHESIS AND LNP FORMULATION” (priority 2023, published 2026).
Like-named read-outs stand apart in the source and are kept apart here.

Assays:
[1] = Encapsulation efficiency of loaded LNPs, RiboGreen RNA assay (Method A); format: physicochemical
Procedure, shortened: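 mRNA-LNP samples diluted in TE buffer (~4-7 μg/mL RNA) and plated in duplicate with TE or Triton X-100 buffer, then 10 min at 37° C to lyse particles. RiboGreen (1:100 in TE pH 7.5) added after cooling; fluorescence ex 480/em 525, mRNA quantified against RNA standard curve.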

[2] = LNP size, PDI and zeta potential by Dynamic Light Scattering (Method A); format: physicochemical; conditions: LNP formulated with the lipid, DLS
Procedure, shortened: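 LNPs formed by microfluidic mixing of ethanolic lipid mix with Luc mRNA in 10 mM citrate pH 4.0, about 12 ml/min total flow at 3:1 ratio. Particle size, PDI and zeta potential then measured by dynamic light scattering.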

[3] = encapsulation efficiency of mRNA-loaded LNP, Method A, RiboGreen

Row | Structure (SMILES) | EE (%) [1] | PDI [2] | Size (nm) [2] | Zeta potential (mV) [2] | EE (%) [1, 3]
1 | CCCCC/C=C\C/C=C\CCCCCCCCO[Si](C)(C)OC(CCCCCCC/C=C\C/C=C\CCCCC)OCCCN(C)C (centres unmarked) [Example 80, (17Z,20Z)-5-((8Z,11Z)-heptadeca-8,11-dien-1-yl)-N,N,7,7-tetramethyl-4,6,8-trioxa-7-silahexacosa-17,20-dien-1-amine] | 83% | 0.11 | 90.19 nm | −26.51 mV | –
2 | CCCCC/C=C\C/C=C\CCCCCCCCO[Si](C)(C)OC(CCCCCCC/C=C\CCCCCCCC)OCCCN(C)C (centres unmarked) [Example 81, (17Z,20Z)-5-((Z)-heptadec-8-en-1-yl)-N,N,7,7-tetramethyl-4,6,8-trioxa-7-silahexacosa-17,20-dien-1-amine] | 86% | 0.10 | 104 nm | −25.24 mV | –
3 | CCCCC/C=C\C/C=C\CCCCCCCCOC(CCCCCCC/C=C\C/C=C\CCCCC)O[Si](C)(C)O[Si](C)(C)CCCCCCN(CCO)CCO (centres unmarked) [Example 82, (24Z,27Z)-14-((8Z,11Z)-heptadeca-8,11-dien-1-yl)-3-(2-hydroxyethyl)-10,10,12,12-tetramethyl-11,13,15-trioxa-3-aza-10,12-disilatritriaconta-24,27-dien-1-ol] | – | 0.26 | 97.5 nm | −16.31 mV | 80%
4 | CCCCCCCC/C=C\CCCCCCCCOC(=O)C(C)(C)CC(OCCCCCCCC/C=C\CCCCCCCC)O[Si](C)(C)OCCCCCCN(CCO)CCO (centres unmarked) [Example 84, (Z)-octadec-9-en-1-yl 1-hydroxy-3-(2-hydroxyethyl)-11,11,15,15-tetramethyl-13-(((Z)-octadec-9-en-1-yl)oxy)-10,12-dioxa-3-aza-11-silahexadecan-16-oate] | – | 0.15 | 71.7 nm | −16.66 mV | 90%
5 | CCCCCCCC/C=C\CCCCCCCCOC(=O)C(C)(C)CC(OCCCCCCCC/C=C\CCCCCCCC)O[Si](C)(C)OCCCCCCN1CCOCC1 (centres unmarked) [Example 85, (Z)-octadec-9-en-1-yl 4-((dimethyl((6-morpholinohexyl)oxy)silyl)oxy)-2,2-dimethyl-4-(((Z)-octadec-9-en-1-yl)oxy)butanoate] | – | 0.1 | 96.37 nm | −14.54 mV | 90%
6 | CCCCCCCC/C=C\CCCCCCCCOC(=O)C(C)(C)CC(OCCCCCCCC/C=C\CCCCCCCC)O[Si](C)(C)OCCCCCCN(CCCCO)CCCCO (centres unmarked) [Example 86, (Z)-octadec-9-en-1-yl 18-hydroxy-14-(4-hydroxybutyl)-2,2,6,6-tetramethyl-4-(((Z)-octadec-9-en-1-yl)oxy)-5,7-dioxa-14-aza-6-silaoctadecanoate] | – | 0.25 | 109.7 nm | −13.69 mV | 87%
7 | CCCCCCCC/C=C\CCCCCCCCOC(=O)C(C)(C)CC(OCCCCCCCC/C=C\CCCCCCCC)O[Si](C)(C)OCCCCCCN1CCCCC1 (centres unmarked) [Example 87, (Z)-octadec-9-en-1-yl 4-((dimethyl((6-(piperidin-1-yl)hexyl)oxy)silyl)oxy)-2,2-dimethyl-4-(((Z)-octadec-9-en-1-yl)oxy)butanoate] | – | 0.06 | 101.8 nm | −12.28 mV | 89%
8 | CCCCCCCC/C=C\CCCCCCCCOC(=O)C(C)(C)CC(OCCCCCCCC/C=C\CCCCCCCC)O[Si](C)(C)OCCCCCCN(CCCO)CCCO (centres unmarked) [Example 88, (Z)-octadec-9-en-1-yl 1-hydroxy-4-(3-hydroxypropyl)-12,12,16,16-tetramethyl-14-(((Z)-octadec-9-en-1-yl)oxy)-11,13-dioxa-4-aza-12-silaheptadecan-17-oate] | – | 0.21 | 86.51 nm | −7.76 mV | 87%
9 | CCCCCCCC/C=C\CCCCCCCCOC(=O)C(C)(C)CC(OCCCCCCCC/C=C\CCCCCCCC)O[Si](C)(C)OCCCCCCN1CCCCC1CO (centres unmarked) [Example 89, (Z)-octadec-9-en-1-yl 4-((((6-(2-(hydroxymethyl)piperidin-1-yl)hexyl)oxy)dimethylsilyl)oxy)-2,2-dimethyl-4-(((Z)-octadec-9-en-1-yl)oxy)butanoate] | – | 0.12 | 97.17 nm | −10.93 mV | 89%
10 | CCCCCCCC/C=C\CCCCCCCCOC(=O)C(C)(C)CC(OCCCCCCCC/C=C\CCCCCCCC)O[Si](C)(C)OCCCCCCN1CCCC1CO (centres unmarked) [Example 90, (Z)-octadec-9-en-1-yl 4-((((6-(2-(hydroxymethyl)pyrrolidin-1-yl)hexyl)oxy)dimethylsilyl)oxy)-2,2-dimethyl-4-(((Z)-octadec-9-en-1-yl)oxy)butanoate] | – | 0.14 | 100.2 nm | −16.19 mV | 87%
11 | CCCCCCCC/C=C\CCCCCCCCOC(=O)C(C)(C)CC(OCCCCCCCC/C=C\CCCCCCCC)O[Si](C)(C)OCCCCCCN(C)CCCCO (centres unmarked) [Example 91, (Z)-octadec-9-en-1-yl 18-hydroxy-2,2,6,6,14-pentamethyl-4-(((Z)-octadec-9-en-1-yl)oxy)-5,7-dioxa-14-aza-6-silaoctadecanoate] | – | 0.17 | 85.49 nm | −15.27 mV | 88%
12 | CCCCCCCC/C=C\CCCCCCCCOC(=O)C(C)(C)CC(OCCCCCCCC/C=C\CCCCCCCC)O[Si](C)(C)OCCCCCCN(C)CC(O)CO (centres unmarked) [Example 92, (Z)-octadec-9-en-1-yl 1,2-dihydroxy-4,12,12,16,16-pentamethyl-14-(((Z)-octadec-9-en-1-yl)oxy)-11,13-dioxa-4-aza-12-silaheptadecan-17-oate] | – | 0.23 | 85.81 nm | −12.56 mV | 89%
13 | CCCCCCCC/C=C\CCCCCCCCOC(=O)C(C)(C)CC(OCCCCCCCC/C=C\CCCCCCCC)O[Si](C)(C)OCCCCCCN(C)CCO (centres unmarked) [Example 93, (Z)-octadec-9-en-1-yl 1-hydroxy-3,11,11,15,15-pentamethyl-13-(((Z)-octadec-9-en-1-yl)oxy)-10,12-dioxa-3-aza-11-silahexadecan-16-oate] | – | 0.15 | 82.7 nm | −14.61 mV | 88%
14 | CCCCCCCC/C=C\CCCCCCCCOC(=O)C(C)(C)CCC(OCCCCCCCC/C=C\CCCCCCCC)O[Si](C)(C)OCCCCCCN(CCO)CCO (centres unmarked) [Example 94, (Z)-octadec-9-en-1-yl 1-hydroxy-3-(2-hydroxyethyl)-11,11,16,16-tetramethyl-13-(((Z)-octadec-9-en-1-yl)oxy)-10,12-dioxa-3-aza-11-silaheptadecan-17-oate] | – | 0.24 | 93.8 nm | −12.89 mV | 86%
15 | CCCCCCCC/C=C\CCCCCCCCOC(=O)C(C)(C)CCC(OCCCCCCCC/C=C\CCCCCCCC)O[Si](C)(C)OCCCCCCN1CCOCC1 (centres unmarked) [Example 95, (Z)-octadec-9-en-1-yl 5-((dimethyl((6-morpholinohexyl)oxy)silyl)oxy)-2,2-dimethyl-5-(((Z)-octadec-9-en-1-yl)oxy)pentanoate] | – | 0.15 | 90.33 nm | −20.80 mV | 88%
16 | CCCCCCCC/C=C\CCCCCCCCOC(=O)C(C)(C)CC(OCCCCCCCC/C=C\CCCCCCCC)O[Si](C)(C)OCCCCCCN(CCO)CCN(CCO)CCCCCCO[Si](C)(C)OC(CC(C)(C)C(=O)OCCCCCCCC/C=C\CCCCCCCC)OCCCCCCCC/C=C\CCCCCCCC (centres unmarked) [Example 96, di((Z)-octadec-9-en-1-yl) 14,17-bis(2-hydroxyethyl)-2,2,6,6,25,25,29,29-octamethyl-4,27-bis(((Z)-octadec-9-en-1-yl)oxy)-5,7,24,26-tetraoxa-14,17-diaza-6,25-disilatriacontanedioate] | – | 0.14 | 81.42 nm | −17.77 mV | 89%
17 | C#CCN(C)CCCCCCO[Si](C)(C)OC(CC(C)(C)C(=O)OCCCCCCCC/C=C\CCCCCCCC)OCCCCCCCC/C=C\CCCCCCCC (centres unmarked) [Example 97, (Z)-octadec-9-en-1-yl 4,12,12,16,16-pentamethyl-14-(((Z)-octadec-9-en-1-yl)oxy)-11,13-dioxa-4-aza-12-silaheptadec-1-yn-17-oate] | – | 0.26 | 101.9 nm | −22.01 mV | 86%
18 | CCCCCCCCCCCOC(=O)CCCCCN(CCO)CCCCCCCC(=O)OC(CCCCCCCC)CCCCCCCC [SM-102, reference compound] | – | – | 77.03 nm | −5.03 mV | 88%
